Values after ≈ are worked out from the molar mass of the structure shown. No end group written: not given here.

The test system of data set [1] is Escherichia coli O157:H7 MT strain. Type of data set: cell-based. The note with it: E. coli O157:H7 MT strain; broth microdilution, MHB, 24 h, 37 °C, triplicate. From the text:
(§1) Ten strains of both Gram-positive and -negative bacteria, including Staphylococcus aureus ATCC 25,923, S. epidermidis ATCC 12,228, Bacillus cereus ATCC 11,778, Listeria monocytogenes 10403S, Salmonella typhimurium ATCC 13,311, Pseudomonas aeruginosa ATCC 27,853, Shigella sonnei ATCC 11,060, A. baumannii ATCC 19,606, Escherichia coli ATCC 25,922 and E. coli O157:H7, were used in this study. Eight clinical isolates of multidrug-resistant (MDR) and extensively drug-resistant (XDR) A. baumannii, isolated from human (blood, sputum, respiratory sample, sterile site sample and urine), were kindly provided by Asst. Prof. Dr. Sakawrat Kanthawong (Faculty of Medicine, Khon Kaen University, Thailand) (Table S1). All bacterial strains, excluding L. monocytogenes 10403S and E. coli, were cultured in tryptic soy broth (TSB). L. monocytogenes was grown in TSB supplemented with 0.6% yeast extract (TSB-YE), and E. coli was cultured in Luria broth (LB). All of bacteria were cultured at 37 °C with continuous shaking at 220 rpm.
(§2) Minimum inhibitory concentration (MIC) of peptides and antibiotics was assessed by a modified version of the broth microdilution method from the Clinical and Laboratory Standards Institute (CLSI) as previously described. In brief, mid-log phase growths of microbial strains were cultured in Müeller-Hinton broth (MHB) with an initial inoculum of 2–8 × 10^5 CFU/mL. Bacteria suspensions were incubated in sterile 96-well plates with test agents at desired concentrations. […] Minimum bactericidal concentration (MBC) determination was performed using a modified version of the colony count assay. In brief, fifty µl of all non-turbid wells from MIC experiments were spread on agar plates. The MBC value was defined as the lowest concentration of peptides with no colony growth on the plate. All assays were performed in triplicate.

The test system of data set [2] is Listeria monocytogenes 10403S. The class given is cell-based. As to conditions: L. monocytogenes 10403S; broth microdilution, MHB, 24 h, 37 °C, triplicate.
From the text: as §1, §2
Background: Dilution methods test growth across graded concentrations, often in twofold steps.

Data set [3] deals with Staphylococcus aureus ATCC 25,923. Type of data set: cell-based. As to conditions: S. aureus ATCC 25,923; broth microdilution, MHB, 24 h, 37 °C, triplicate.
From the text: as §1, §2

Data set [4] deals with Escherichia coli ATCC 25,922. The class given is cell-based. The note with it: E. coli ATCC 25,922; broth microdilution, MHB, 24 h, 37 °C, triplicate.
From the text: as §1, §2

Data set [5] has as its system Bacillus cereus ATCC 11,778. The class given is cell-based. The note with it: B. cereus ATCC 11,778; broth microdilution, MHB, 24 h, 37 °C, triplicate.
From the text: as §1, §2

Data set [6] has as its system Staphylococcus epidermidis ATCC 12,228. Type of data set: cell-based. As to conditions: S. epidermidis ATCC 12,228; broth microdilution, MHB, 24 h, 37 °C, triplicate.
From the text: as §1, §2

Data set [7] deals with Shigella sonnei ATCC 11,060. The class given is cell-based. As to conditions: S. sonnei ATCC 11,060; broth microdilution, MHB, 24 h, 37 °C, triplicate.
From the text: as §1, §2

Data set [8] concerns Pseudomonas aeruginosa ATCC 27,853. Type of data set: cell-based. The note with it: P. aeruginosa ATCC 27,853; broth microdilution, MHB, 24 h, 37 °C, triplicate.
From the text: as §1, §2

Data set [9] has as its system Salmonella Typhimurium ATCC 13,311. Type of data set: cell-based. As to conditions: S. Typhimurium ATCC 13,311; broth microdilution, MHB, 24 h, 37 °C, triplicate.
From the text: as §1, §2

The subject of data set [10] is human red blood cells (hRBCs). Put plainly: Hemolysis assay. Type of data set: cell-based. The note with it: peptide concentration that caused 10% hemolysis; 2% (v/v) hRBCs in PBS pH 7.4, 0.98 to 250 μg/ml, 1 h, 37 °C, OD 405 nm, triplicate. The method, then: The hemolytic activity of peptides was determined as the amount of hemoglobin released from lysed human red blood cells (hRBCs) after treatment with peptide. Fresh hRBCs were collected from a healthy volunteer in polycarbonate tubes containing heparin. Then, the collected packed RBCs were washed at least three times (or until the supernatant was clear) with sterile phosphate-buffered saline pH 7.4 (PBS) and centrifuged at 2,000 × g for 5 min. The 2% (v/v) of washed hRBCs in PBS were incubated with serially diluted peptides (0.98 to 250 μg/ml) for 1 h at 37 °C. After centrifugation, the supernatants were monitored for optical density (OD) at 405 nm using a Multiskan FC Microplate Reader[21]. Values for 0% (negative control) and 100% (positive control) lysis were determined by incubating the hRBCs with PBS only (ODBlank) and 0.1% (v/v) Triton X-100 (ODTriton X-100), respectively. The experiments were performed in triplicate. The percent hemolysis was calculated according to the following equation: %Hemolysis=ODSample-ODBlank/ODTriton X-100-ODBlank×100

The subject of data set [11] is A. baumannii ATCC 19,606. Briefly: microbe, parasite or virus in culture. The note with it: A. baumannii ATCC 19,606; broth microdilution (modified CLSI), MHB, 2–8 × 10^5 CFU/mL, 24 h, 37 °C, triplicate. The class given is cell-based, Acinetobacter baumannii.
From the text: as §1, §2

Data set [12] has as its system mouse fibroblast (L929) cells. Briefly: In vitro cytotoxicity assay (MTT). The class given is cell-based. As to conditions: 24 h, peptide 62.5 µg/mL. The method, then:
The colorimetric 3-(4,5 dimethylthiazol-2-yl)-2,5-diphenyltetrazolium bromide (MTT; Invitrogen) dye reduction assay was used to determine the cytotoxicity of peptides on mouse fibroblast (L929) cells (NCTC clone 929) according to a modified MTT assay. L929 cells were cultured in Dulbecco’s Modified Eagle Medium (DMEM; Gibco) containing 10% fetal bovine serum (FBS; Gibco) and 100 U/ml penicillin–streptomycin in a fully humidified atmosphere of 95% air and 5% CO2 at 37 °C. The cells (10^5 cells/well) were seeded on 96-well plates and incubated with serially diluted peptide (0.98 to 250 μg/ml) for 24 h. At the end of incubation period, MTT solution (100 µl, 0.4 mg/ml) was added to each well and incubated for 4 h. The supernatants were removed and replaced by 100 µl of DMSO to dissolve the purple formazan crystals. Absorbance was measured using a MultiskanTM FC microplate reader at a wavelength of 570 nm. Cells without peptides served as negative controls. Cell viability (percentage) was calculated using the following equation: %Cell viability=OD570of treated sample-ODBlank/OD570of control-ODBlank×100%

On to RLFRRVKKVAGKIAKRIWKILRR-NH2 [A3P7], for which the MIC in [1] worked out at 15.63 µg/mL; in [2], 3.91 µg/mL; in [3], 7.81 µg/mL; in data set [4] it was 7.81 µg/mL; in [5], 7.81 µg/mL; in data set [6], 7.81 µg/mL. Further, the MIC in data set [7], in data set [8], in data set [9] and in data set [11] was 7.81 µg/mL each time. The “MHC, minimum hemolytic concentration” value in data set [10] was 1.95 µg/mL.

`CC[C@H](C)[C@H](NC(=O)CN)C(=O)NCC(=O)N[C@@H](C)C(=O)N[C@H](C(=O)N[C@@H](CC(C)C)C(=O)N[C@@H](CCCCN)C(=O)N[C@H](C(=O)N[C@@H](CC(C)C)C(=O)N[C@H](C(=O)N[C@H](C(=O)NCC(=O)N[C@@H](CC(C)C)C(=O)N1CCC[C@H]1C(=O)N[C@@H](C)C(=O)N[C@@H](CC(C)C)C(=O)N[C@H](C(=O)N[C@@H](CO)C(=O)N[C@@H](Cc1c[nH]c2ccccc12)C(=O)N[C@H](C(=O)N[C@@H](CCCCN)C(=O)N[C@@H](CCCNC(=N)N)C(=O)N[C@@H](CCCCN)C(=O)N[C@@H](CCCNC(=N)N)C(=O)N[C@@H](CCC(N)=O)C(=O)N[C@@H](CCC(N)=O)C(N)=O)[C@@H](C)CC)[C@@H](C)CC)[C@@H](C)O)[C@@H](C)O)C(C)C)C(C)C` [Melittin, reference compound]: the MIC in data set [1] came to 7.81 µg/mL (≈ 2.74 µM); in data set [2], 3.91 µg/mL (≈ 1.37 µM); in data set [5], 7.81 µg/mL (≈ 2.74 µM); in data set [6] it was 3.91 µg/mL (≈ 1.37 µM); in data set [7], 3.91 µg/mL (≈ 1.37 µM); in data set [8], 7.81 µg/mL (≈ 2.74 µM). The MIC in data set [9] and in data set [11] was 3.91 µg/mL (≈ 1.37 µM) in each case. For the same molecule, the cell viability entry in [12] was “less than 5%”.

Values taken from publication PMC9508196 (Scientific Reports, 2022).
